Reference: patent publication US20260034150A1, “CANNABIDIOL FOR USE IN TREATING OR PREVENTING RECURRENT PERICARDITIS” (CARDIOL THERAPEUTICS INC., priority 2022, published 2026)
Where “and” joins values, the source holds several entries; their conditions need not be identical. Identical values can stand only once.

How the values were obtained:
[1] = test system: NLRP3 inflammasome; test: IL-1β ELISA in the in vitro model of NLRP3 inflammasome activation (LPS + ATP); type: cell-based, mouse; conditions: for attenuation of the increase in IL-1β: CBD 10 μM, LPS + ATP
Procedure: An experiment was performed to determine the effect of 10 μM cannabidiol on NLRP3 inflammasome activation in an in vitro model as follows. J774A.1 mouse macrophages were cultured in 96-well plates (15,000 cells/well) and divided into the following groups to which various treatments described below were administered during a period of six hours: • 1. Group 1 (CNT)—cells received nothing during the 6-hour treatment period. • 2. Group 2 (LPS)—cells received LPS (1 μg/ml) for 6 hours. • 3. Group 3 (ATP)—cells received nothing for 5.5 hours and then ATP (5 mM) for the last 30 minutes. • 4. Group 4 (LPS+ATP)—cells received LPS (1 μg/mL) for 5.5 hours and ATP (5 mM) for the last 30 minutes. • 5. […] After 6 hours, 100 μL of a sample from each well of cells was collected and loaded as a single point in a specific ELISA assay that was used to measure the amount of IL-1β secreted by the macrophages in each sample. IL-1β is an indicator of and positively correlated with NLRP3 inflammasome activation. An experiment was performed to evaluate the effect of different doses of cannabidiol (10, 1, 0.1, and 0.01 μM) using the in vitro model of Example 1A. In this experiment, J774A.1 mouse macrophages were cultured in 96-well plates (15,000 cells/well) and divided into the following groups to which various treatments described below were administered during a period of six hours: • 1. Group 1 (Control)—cells received nothing during the 6-hour treatment period. • 2. Group 2 (LPS+ATP)—cells received LPS (1 μg/mL) for 5.5 hours and ATP (5 mM) for the last 30 minutes. • 3. […] After 6 hours, 100 μL of a sample from each well of cells was collected and loaded as a single point in a specific ELISA assay that was used to measure the amount of IL-1β in each sample.

[2] = test system: IL-6; test: IL-6 ELISA in LPS-treated macrophages (in vitro model of inflammation); type: cell-based, mouse; conditions: CBD 10 μM + LPS 1 μg/mL for 6 hours; J774A.1
Procedure: Experiments were performed to evaluate cannabidiol's anti-inflammatory activity and mechanism of action. The secretion of IL-6 and the transcription of the NLRP3 inflammasome components, pro-IL-1β mRNA, and NLRP3 mRNA, are regulated by the NF-κβ pathway and activated by LPS. In a first experiment, J774A.1 mouse macrophages were cultured in 96-well plates (15,000 cells/well) and divided into the following groups to which various treatments described below were administered during a period of six hours: • 1. Group 1 (Control)—cells received nothing during the 6 hours treatment period. • 2. Group 2 (LPS)—cells received LPS (1 μg/ml) for 6 hours. • 3. […] After 6 hours, 100 μL of a sample from each well of cells was collected and loaded as a single point in a specific ELISA assay that was used to measure the amount of IL-6 in each sample. […] A second experiment was performed to evaluate the effect of cannabidiol on the transcription of components of the NLRP3 inflammasome, namely, pro-IL-1β mRNA and NLRP3 mRNA. In this second experiment, J774A.1 mouse macrophages were cultured in individual plates (1,000,000 cells/well) and divided into the following groups to which various treatments described below were administered during a period of six hours. • 1. Group 1 (Control)—cells received nothing during the 6 hours treatment period. • 2. […]

[3] = test system: pro-IL-1β mRNA; test: PCR of pro-IL-1β mRNA transcription in LPS-treated macrophages; type: cell-based, mouse; conditions: CBD 10 μM + LPS 1 μg/mL for 6 hours; J774A.1
Procedure: (§1) Experiments were performed to evaluate cannabidiol's anti-inflammatory activity and mechanism of action. The secretion of IL-6 and the transcription of the NLRP3 inflammasome components, pro-IL-1β mRNA, and NLRP3 mRNA, are regulated by the NF-κβ pathway and activated by LPS. After 6 hours, 100 μL of a sample from each well of cells was collected and loaded as a single point in a specific ELISA assay that was used to measure the amount of IL-6 in each sample. […] A second experiment was performed to evaluate the effect of cannabidiol on the transcription of components of the NLRP3 inflammasome, namely, pro-IL-1β mRNA and NLRP3 mRNA. In this second experiment, J774A.1 mouse macrophages were cultured in individual plates (1,000,000 cells/well) and divided into the following groups to which various treatments described below were administered during a period of six hours. • 1. Group 1 (Control)—cells received nothing during the 6 hours treatment period. • 2. Group 2 (LPS)—cells received LPS (1 μg/ml) for 6 hours. • 3. […] At the end of the six-hour treatment period, samples from each group were collected and processed using Polymerase Chain Reaction (PCR) to measure the level of transcription of pro-IL-1B mRNA and NLRP3 mRNA in the samples.

[4] = test system: NLRP3 mRNA; test: PCR of NLRP3 mRNA transcription in LPS-treated macrophages; type: cell-based, mouse; conditions: CBD 10 μM + LPS 1 μg/mL for 6 hours; J774A.1
Procedure: as §1

[5] = test system: mouse model of pericarditis; test: Mouse model of pericarditis (Zymosan A): pericardial space by transthoracic echocardiography; type: in vivo
Procedure: (§2) Experiments were conducted using a mouse model of pericarditis described in Mauro et al. (10), which mouse model is incorporated herein by reference for its disclosure of the mouse model.
(§3) Adult Institute of Cancer Research (IRC) mice (10 weeks of age) supplied by Harlan Laboratories (Harlan Sprague Dawley Inc.) were used and divided into the following treatment groups, with each group consisting of 4-5 mice: • 1. Group 1 (NaCl+Veh)—mice received normal saline (0.9% w/v NaCl) in the surgical procedure described below and were subsequently treated for seven days with a vehicle consisting of ethanol:Cremophor EL:water (1:1:18). • 2. Group 2 (NaCl+)—mice received normal saline (0.9% w/v NaCl) in the surgical procedure described below and were subsequently treated for seven days with cannabidiol at a dose of 10 mg/kg. The cannabidiol was dissolved in the same vehicle as the vehicle used for Group 1. • 3. Group 3 (Zym+Veh)—mice received Zymosan A in the surgical procedure described below and were subsequently treated for seven days with the same vehicle as the vehicle used for Group 1. • 4. […] The cannabidiol was dissolved in the same vehicle as the vehicle used for Group 1. • 5. […] The cannabidiol was dissolved in the same vehicle as the vehicle used for Group 1.
The mice of all four treatment groups were anesthetized, intubated orotracheally, and placed in the right lateral decubitus position. A left thoracotomy was then performed. Under direct visualization and using a 30 Gauge needle, 1 mg of Zymosan A (referred to herein also as “zymosan”) dissolved in 50 μl of sterile normal saline (0.9% w/v NaCl) was delivered into the pericardial space of the mice of Groups 3 and 4 by carefully lifting the pericardial sac with forceps until a complete distribution of the solution into the pericardium was achieved. […] All mice received analgesia for the peri-operative period.
For all groups, treatments with either cannabidiol dissolved in vehicle, or vehicle alone, were administered intraperitoneally (IP) every day for seven days with the first treatment administered approximately 30 minutes after the surgery.
On day seven, echocardiography was performed on the mice of all groups under light anesthesia using a Prospect™ T1 ultrasound imaging system (Scintica, London, Canada). In this procedure, the left ventricle in the parasternal short-axis view at the mid-ventricular level was visualized in the bi-dimensional mode (B-mode). The image was optimized for the anterior wall, and the image was zoomed in to visualize the anterior pericardial structures. After optimization of the image, amono-dimensional mode (M-mode) was acquired for optimal spatial-temporal resolution. An investigator blinded to group allocation measured the maximal pericardial space between the 2 layers of the pericardium in both M- and B-mode. The pericardial space is a one-dimensional measure of pericardial effusion.

[6] = test system: mouse model of pericarditis; test: Mouse model of pericarditis (Zymosan A): pericardial thickness by histochemistry; type: in vivo; conditions: day seven, differences not statistically significant
Procedure: as §2, §3
The mice of all four treatment groups were anesthetized, intubated orotracheally, and placed in the right lateral decubitus position. A left thoracotomy was then performed. […]
Following echocardiography, and on day seven, the mice were sacrificed, and their hearts were explanted and processed for pathology. […] An investigator blinded to group allocation measured the pericardial thickness with the aid of computer morphometry using Image-Pro™ Plus 6.0 software (Media Cybernetics, Silver Spring, MD).

C=C(C)[C@@H]1CCC(C)=C[C@H]1c1c(O)cc(CCCCC)cc1O [CBD, 2-[(1R,6R)-3-methyl-6-prop-1-en-2-ylcyclohex-2-en-1-yl]-5-pentylbenzene-1,3-diol]
IL-1β concentration versus LPS+ATP group (FIG. 1A) ([1]; CBD 10 μM + LPS + ATP versus LPS + ATP, J774A.1): significantly lower concentrations of IL-1β
effect of different concentrations on IL-1β (FIG. 1B) ([1]; CBD 10, 1, 0.1 and 0.01 μM + LPS + ATP, J774A.1): effective to attenuate the increase in IL-1β in a dose dependent fashion
IL-1β with CBD alone versus Control group ([1]; CBD alone 10 μM, no LPS or ATP, J774A.1): no different than the Control group
IL-1β Concentration, CBD, Mean ([1]; Table 1A.1, J774A.1 macrophages, CBD 10 μM alone for 6 hours, mean): 6 pg/mL
IL-1β Concentration, CBD ([1]; Table 1A.1, J774A.1 macrophages, CBD 10 μM alone for 6 hours, single wells): 5.9 pg/mL and 6.1 pg/mL
IL-1β Concentration, CBD + LPS + ATP, Mean ([1]; Table 1A.1, J774A.1, CBD 10 μM + LPS 1 μg/mL 5.5 hours, ATP 5 mM last 30 minutes, mean): 118.725 pg/mL
IL-1β Concentration, CBD ([1]; Table 1A.2 (repeat), J774A.1, CBD 10 μM alone, single wells): 7.86 pg/mL and 6.35 pg/mL and 8.81 pg/mL and 9.46 pg/mL and 10.46 pg/mL and 8.97 pg/mL
IL-1β Concentration, LPS + ATP + CBD ([1]; Table 1A.3 (repeat), J774A.1, CBD 10 μM + LPS + ATP, single wells): 10.8 pg/mL and 17 pg/mL and 11.31 pg/mL and 18.96 pg/mL
IL-1β Concentration, LPS + ATP + CBD, Mean ([1]; Table 1A.4, mean of Tables 1A.2 and 1A.3, CBD 10 μM + LPS + ATP): 19.44 pg/mL
IL-1β Concentration, CBD, Mean ([1]; Table 1A.4, mean of Tables 1A.2 and 1A.3, CBD 10 μM alone): 8.898 pg/mL
attenuation of the increase in IL-1β ([1]; calculated from Table 1A.1 means): over 70%
attenuation of the increase in IL-1β ([1]; calculated from Table 1A.4 means): about 97.65%
effect on LPS-induced increase in IL-6 (FIG. 1C) [2]: attenuated this increase completely
effect on LPS-induced transcription of pro-IL-1β mRNA (FIG. 1D) [3]: significantly attenuated these increases
effect on LPS-induced transcription of NLRP3 mRNA (FIG. 1E) [4]: significantly attenuated these increases
effect on increase in measured pericardial space, Zym+CBD 1 mg/kg (FIG. 2) ([5]; Zymosan A mice, CBD 1 mg/kg IP daily for seven days): attenuated the increase in the measured pericardial space to the same degree as cannabidiol at a dose of 10 mg/kg
Measured pericardial space, Zym + CBD, Mean ([5]; Zymosan A mice, CBD 10 mg/kg IP daily for seven days, day seven, mean): 0.1177 mm
Measured pericardial space, Zym + CBD ([5]; Zymosan A mice, CBD 10 mg/kg IP daily for seven days, day seven, single mice): 0.103 mm and 0.152 mm and 0.112 mm and 0.104 mm
pericardial space versus Group 1 (Saline+Veh), Zym+CBD ([5]; Zymosan A mice, CBD 10 mg/kg IP, differences not statistically significant): did not develop a pericardial space greater than that of the mice of Group 1
attenuation of the increase in the measured pericardial space ([5]; calculated from Table 2 means, Zymosan A mice, CBD 10 mg/kg IP): at least 85%
Measured pericardial space, Saline + CBD ([5]; sham (saline) mice, CBD 10 mg/kg IP daily for seven days, day seven, single mice): 0.098 mm and 0.097 mm and 0.105 mm
pericardial space versus Group 1 (Saline+Veh), Saline+CBD ([5]; sham mice, CBD 10 mg/kg IP, differences not statistically significant): did not develop a pericardial space greater than that of the mice of Group 1
pericardial thickness versus Group 1 (NaCl+Veh), Zym+CBD 1 mg/kg ([6]; Zymosan A mice, CBD 1 mg/kg IP): did not develop a pericardial thickness different from that of the mice of Group 1
pericardial thickness versus Group 1 (NaCl+Veh), Zym+CBD 10 mg/kg (FIG. 3) ([6]; Zymosan A mice, CBD 10 mg/kg IP): did not develop a pericardial thickness different from that of the mice of Group 1
pericardial thickness versus Group 1 (NaCl+Veh), NaCl+CBD (FIG. 3) ([6]; sham mice, CBD 10 mg/kg IP): did not develop a pericardial thickness different from that of the mice of Group 1
